According to PubChem BioAssay AID248 (DTP/NCI, 2004):
“And” between values parts separate entries of the source, which are not always exact repeats. Equal entries are not always repeated. Inconclusive results and toxic doses are left out. No stated cut-off is given here; in the data, active means T/C of 150% or more; inactive means T/C below 125%.

Tested on: L1210 leukemia ip in BDF1 mice, survival T/C
Assay: NCI In Vivo Anticancer Drug Screen. Data for tumor model L1210 Leukemia (intraperitoneal) in B6D2F1 (BDF1) mice
Settings: endpoint: mean survival time, higher = longer survival
Method in brief: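 Each compound was tested against a transplantable tumor grown in mice. The endpoint was survival, with treated animals benchmarked against vehicle controls as a simple ratio.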

[1] = dose: 100.0 mg/kg/injection, schedule: Q04DX003 (ip), vehicle: Klucel (hydroxypropylcellulose) (HPC)
[2] = dose: 200.0 mg/kg/injection, schedule: Q04DX003 (ip), vehicle: Klucel (hydroxypropylcellulose) (HPC)
[3] = dose: 400.0 mg/kg/injection, schedule: Q04DX003 (ip), vehicle: Klucel (hydroxypropylcellulose) (HPC)
[4] = dose: 100.0 mg/kg/injection, schedule: Q01DX009 (ip), vehicle: saline
[5] = dose: 200.0 mg/kg/injection, schedule: Q01DX009 (ip), vehicle: saline
[6] = dose: 50.0 mg/kg/injection, schedule: Q01DX001 (ip), vehicle: carboxymethylcellulose (CMC)
[7] = dose: 100.0 mg/kg/injection, schedule: Q01DX001 (ip), vehicle: carboxymethylcellulose (CMC)
[8] = dose: 200.0 mg/kg/injection, schedule: Q01DX001 (ip), vehicle: carboxymethylcellulose (CMC)
[9] = dose: 100.0 mg/kg/injection, schedule: Q01DX009 (ip), vehicle: saline with Tween-80
[10] = dose: 200.0 mg/kg/injection, schedule: Q01DX009 (ip), vehicle: saline with Tween-80
[11] = dose: 400.0 mg/kg/injection, schedule: Q01DX009 (ip), vehicle: saline with Tween-80
[12] = dose: 100.0 mg/kg/injection, schedule: Q04DX003 (ip), vehicle: saline with Tween-80
[13] = dose: 200.0 mg/kg/injection, schedule: Q04DX003 (ip), vehicle: saline with Tween-80
[14] = dose: 400.0 mg/kg/injection, schedule: Q04DX003 (ip), vehicle: saline with Tween-80
[15] = dose: 100.0 mg/kg/injection, schedule: Q04DX003 (ip), vehicle: saline
[16] = dose: 200.0 mg/kg/injection, schedule: Q04DX003 (ip), vehicle: saline

Measured: T/C

CCOC(=O)CCC(NC(=O)c1ccc2c(c1)CCCN2C=O)C(=O)OCC (stereo not given)
inactive: [1] 104 % of control | [2] 103 % of control | [3] 103 % of control

CCOCCN=Cc1c[nH]c2ccccc12
inactive: [1] 98 % of control | [2] 95 % of control | [3] 98 % of control

COc1cc(/C=N/NC(=O)c2cccnc2)cc(OC)c1OC
inactive: [4] 102 % of control | [5] 107 % of control | dose: 400.0 mg/kg/injection, schedule: Q01DX009 (ip), vehicle: saline 103 % of control

CC1C=C2c3ccccc3CC2C2C(=O)OC(=O)C12 (stereo not given)
inactive: dose: 75.0 mg/kg/injection, schedule: Q01DX001 (ip), vehicle: saline 95 % of control | dose: 150.0 mg/kg/injection, schedule: Q01DX001 (ip), vehicle: saline 100 % of control | dose: 300.0 mg/kg/injection, schedule: Q01DX001 (ip), vehicle: saline 100 % of control

c1ccc(-c2cnc[nH]2)cc1
inactive: [6] 100 % of control | [7] 109 % of control | [8] 117 % of control

O=CN1CCN(c2ccccc2)CC1
inactive: dose: 100.0 mg/kg/injection, schedule: Q04DX002 (ip), vehicle: Klucel (hydroxypropylcellulose) (HPC) 97 % of control | dose: 200.0 mg/kg/injection, schedule: Q04DX002 (ip), vehicle: Klucel (hydroxypropylcellulose) (HPC) 87 % of control | dose: 400.0 mg/kg/injection, schedule: Q04DX002 (ip), vehicle: Klucel (hydroxypropylcellulose) (HPC) 91 % of control

Cc1ccc(CNc2ccc(I)cc2)cc1
inactive: [9] 96 % of control | [10] 96 % of control | [11] 98 % of control

N#CCCC1C2CCC(C2)C1C#N (stereo not given)
inactive: dose: 3.0 mg/kg/injection, schedule: Q01DX009 (ip), vehicle: Klucel (hydroxypropylcellulose) (HPC) 96 % of control | dose: 3.0 mg/kg/injection, schedule: Q04DX003 (ip), vehicle: Klucel (hydroxypropylcellulose) (HPC) 96 % of control | dose: 6.0 mg/kg/injection, schedule: Q01DX009 (ip), vehicle: Klucel (hydroxypropylcellulose) (HPC) 96 % of control | dose: 6.0 mg/kg/injection, schedule: Q04DX003 (ip), vehicle: Klucel (hydroxypropylcellulose) (HPC) 98 % of control | dose: 12.0 mg/kg/injection, schedule: Q01DX009 (ip), vehicle: Klucel (hydroxypropylcellulose) (HPC) 98 % of control | dose: 12.0 mg/kg/injection, schedule: Q04DX003 (ip), vehicle: Klucel (hydroxypropylcellulose) (HPC) 98 % of control | dose: 12.5 mg/kg/injection, schedule: Q04DX003 (ip), vehicle: Klucel (hydroxypropylcellulose) (HPC) 105 % of control

C=C(C)c1c2ccccc2cc2cccc(Sc3ccccc3)c12
inactive: [12] 95 % of control | [13] 96 % of control | [14] 95 % of control

O=NN1C(=O)N[C@@H]2[C@H]1CS[C@@H]2CCCCC(=O)O
inactive: [6] 101 % of control | [7] 96 % of control | [8] 101 % of control | dose: 300.0 mg/kg/injection, schedule: Q01DX001 (ip), vehicle: carboxymethylcellulose (CMC) 95 % of control | dose: 400.0 mg/kg/injection, schedule: Q01DX001 (ip), vehicle: carboxymethylcellulose (CMC) 95 % of control | dose: 600.0 mg/kg/injection, schedule: Q01DX001 (ip), vehicle: carboxymethylcellulose (CMC) 87 % of control | dose: 800.0 mg/kg/injection, schedule: Q01DX001 (ip), vehicle: carboxymethylcellulose (CMC) 90 % of control

CC(=O)Nc1cccc2ccc([N+](=O)[O-])cc12
inactive: dose: 100.0 mg/kg/injection, schedule: Q01DX009 (ip), vehicle: Klucel (hydroxypropylcellulose) (HPC) 96 % of control | [1] 94 % of control | dose: 200.0 mg/kg/injection, schedule: Q01DX009 (ip), vehicle: Klucel (hydroxypropylcellulose) (HPC) 98 % of control | [2] 105 % of control | dose: 400.0 mg/kg/injection, schedule: Q01DX009 (ip), vehicle: Klucel (hydroxypropylcellulose) (HPC) 98 % of control | [3] 98 % of control

O=c1[nH]c(Nc2ccccc2)c(-c2ccccc2)c(=O)[nH]1
inactive: dose: 47.5 mg/kg/injection, schedule: Q01DX001 (ip), vehicle: gum acacia 98 % of control | dose: 95.0 mg/kg/injection, schedule: Q01DX001 (ip), vehicle: gum acacia 88 % of control | dose: 190.0 mg/kg/injection, schedule: Q01DX001 (ip), vehicle: gum acacia 114 % of control

NC(=O)CC(NC(=O)OCc1ccccc1)C(N)=O (stereo not given)
inactive: [1] 93 % of control | [2] 87 % of control | [3] 90 % of control

O=c1[nH]c(=O)n(O)c2nc[nH]c12
inactive: [12] 92 % of control

COc1cc([N+](=O)[O-])c(O)cc1O
inactive: [15] 101 % of control | [16] 100 % of control | dose: 400.0 mg/kg/injection, schedule: Q04DX003 (ip), vehicle: saline 96 % of control

BrCCCCCc1ccccc1
inactive: dose: 100.0 mg/kg/injection, schedule: Q01DX001 (ip), vehicle: saline 106 % of control | dose: 200.0 mg/kg/injection, schedule: Q01DX001 (ip), vehicle: saline 107 % of control | dose: 400.0 mg/kg/injection, schedule: Q01DX001 (ip), vehicle: saline 101 % of control

CCCCSCc1nc2nc(Cl)c(Cl)nc2[nH]1
inactive: dose: 50.0 mg/kg/injection, schedule: Q01DX009 (ip), vehicle: saline with Tween-80 96 % of control | [9] 98 % of control and 92 % of control | [12] 100 % of control | [10] 112 % of control | [13] 98 % of control | [11] 95 % of control and 96 % of control | [14] 98 % of control

O=C(Nc1cccc(F)c1)Nc1ncccn1
inactive: [9] 90 % of control | [10] 86 % of control | [11] 100 % of control

Cc1nn(-c2ccc(Cl)cc2)c(C)c1N=O
inactive: dose: 25.0 mg/kg/injection, schedule: Q01DX001 (ip), vehicle: saline with Tween-80 98 % of control | dose: 50.0 mg/kg/injection, schedule: Q01DX001 (ip), vehicle: saline with Tween-80 95 % of control | dose: 100.0 mg/kg/injection, schedule: Q01DX001 (ip), vehicle: saline with Tween-80 104 % of control

CCOC(=O)c1cc(N)c[nH]1
inactive: dose: 50.0 mg/kg/injection, schedule: Q01DX009 (ip), vehicle: saline 109 % of control | [4] 96 % of control | [15] 89 % of control | [5] 96 % of control | [16] 94 % of control

CCc1nc(N)nc(N)c1-c1ccc([N+](=O)[O-])cc1O
inactive: [1] 92 % of control | [2] 93 % of control | [3] 89 % of control

O=C1OC(c2ccc([N+](=O)[O-])cc2)=N/C1=C\c1ccc2c(c1)OCO2
inactive: dose: 100.0 mg/kg/injection, schedule: Q04DX002 (ip), vehicle: saline with Tween-80 92 % of control | dose: 400.0 mg/kg/injection, schedule: Q04DX002 (ip), vehicle: saline with Tween-80 87 % of control
